Test results from paper PMC11927431 (eGastroenterology, 2025).
Like-named read-outs stand apart in the source and are kept apart here.

Columns and labels:
CB1R = CB1R (Mus musculus, UniProt P47746); assay: Radioligand saturation binding assay on brain membrane homogenates; conditions: read-out: Kd ± S.E.M., 30°C, 60 min
[1] = 3 mg/kg; cited from earlier work

CB1R, sequence (P47746 whole entry): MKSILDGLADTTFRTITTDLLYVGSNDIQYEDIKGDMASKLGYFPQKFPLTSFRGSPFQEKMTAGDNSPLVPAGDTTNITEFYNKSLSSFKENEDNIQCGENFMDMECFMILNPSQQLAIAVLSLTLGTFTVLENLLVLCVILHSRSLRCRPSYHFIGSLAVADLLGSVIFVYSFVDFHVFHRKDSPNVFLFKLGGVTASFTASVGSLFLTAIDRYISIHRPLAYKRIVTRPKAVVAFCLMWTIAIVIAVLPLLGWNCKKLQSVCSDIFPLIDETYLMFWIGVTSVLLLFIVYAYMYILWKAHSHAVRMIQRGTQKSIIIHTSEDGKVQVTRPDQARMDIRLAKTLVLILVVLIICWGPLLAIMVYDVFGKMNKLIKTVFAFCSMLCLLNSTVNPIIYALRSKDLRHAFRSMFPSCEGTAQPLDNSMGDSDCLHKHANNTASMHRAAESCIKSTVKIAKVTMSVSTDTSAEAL

Row | SMILES | Kd (CB1R; CB1^IEC-/- mouse brain membrane homogenate) [nM] | Kd (CB1R; CB1^f/f mouse brain membrane homogenate) [nM] | Anxiogenic behaviour [1]
1 | CCCCCCC(C)(C)c1ccc([C@@H]2C[C@H](O)CC[C@H]2CCCO)c(O)c1 [[^3H]-CP55.940] | 1.7 | 1.68 | –
2 | Cc1c(C(=O)NN2CCCCC2)nn(-c2ccc(Cl)cc2Cl)c1-c1ccc(Cl)cc1 [rimonabant] | – | – | induced significant anxiety
